Test results as given in publication PMC8335727 (Inorganic Chemistry, 2021).

How the values were obtained:
[1] = system: Colo320; assay: MTT cytotoxicity assay, Colo320; assay type: cell-based; settings: Homo sapiens, COLO 320, 72 h of exposure
Protocol: The in vitro cytotoxicity of the TSCs HL^1–HL^3, copper(II) complexes Cu(HL^1)Cl2, [Cu(L^2)Cl], and Cu(HL^3)Cl2, and oxidized TSCs HL^1a′, HL^1a″, and HL^2c′·CH3COOH was tested in the doxorubicin-sensitive Colo205 and the multidrug-resistant Colo320 human colonic adenocarcinoma cell lines as well as in normal human embryonal lung fibroblast cells (MRC-5) by the colorimetric MTT assay. […]
(§1) 2.5. In vitro cell studies
(§2) 2.5.1. Cell lines and culture conditions
All cell culture reagents were obtained from Sigma-Aldrich and plastic ware from Sarstedt
(Germany). Doxorubicin-sensitive human colonic Colo 205 and multidrug resistant
Colo 320/MDR-LRP adenocarcinoma cell lines were purchased from LGC Promochem,
Teddington, UK. The cells were cultured in Roswell Park Memorial Institute (RPMI) 1640
medium supplemented with 10% heat-inactivated fetal bovine serum, 2 mM L-glutamine, 1 mM
Na-pyruvate and 100 mM Hepes. The cell lines were incubated at 37°C, in a 5% CO2, 95% air
(§3) MRC-5 human embryonal lung fibroblast cell line (ATCC CCL-171) was purchased from LGC
(§4) Promochem, Teddington, UK. The cell line was cultured in Eagle’s Minimal Essential Medi um
(§5) (EMEM, containing 4.5 g/L glucose) supplemented with a non-essential amino acid mixture, a
(§6) selection of vitamins and 10% heat-inactivated fetal bovine serum. The cells were incubated at
(§7) 37°C, in a 5% CO2, 95% air atmosphere. All cell lines were detached with Trypsin-Versene
(§8) (EDTA) solution for 5 min at 37 °C.
(§9) The tested compounds were dissolved in DMSO using 10 mM concentration. Then stock solutions
(§10) were diluted in complete culture medium in 96-well microtiter plates, and two-fold serial dilutions
(§11) of compounds were prepared in 100 µL of RPMI 1640, horizontally. The semi-adherent colonic
(§12) adenocarcinoma cells were treated with Trypsin -Versene (EDTA) solution. They were adjusted to
(§13) a density of 1×10^4 cells in 100 µL of RPMI 1640 medium, and were added to each well, with the
(§14) exception of the medium control wells. The final volume of the wells containing compounds and
(§15) cells was 200 µL. The culture were incubated at 37 °C for 72 h; at the end of the incubation period,
(§16) 20 µL of MTT solution (from a stock solution of 5 mg/mL) were added to each well. After
(§17) incubation at 37 °C for 4 h, 100 µL of SDS solution (10% in 0.01 M HCI) were added to each well
(§18) and the plates were further incubated at 37 °C overnight. The cell growth was determined using
(§19) both methods by measuring the optical density (OD) at 450 nm (ref. 620 nm) with a Multiscan EX
(§20) ELISA reader. Inhibition of the cell growth (expressed as IC 50: inhibitory concentration that
(§21) reduces by 50% the growth of the cells exposed to the tested compounds) was determined from
(§22) the sigmoid curve where 100 – ((ODsample ‒ ODmedium control)/(ODcell control ‒ ODmedium control)) × 100
(§23) values were plotted against the logarithm of compound concentrations. […]
0.76 tyrosyl radical/polypeptide. Samples containing 20 µM mR2 in 50 mM HEPES buffer, pH
7.50/100 mM NaCl, and 20 µM respective compound in 1% (v/v) DMSO/H2O, and 2 mM

[2] = log D7.4 by shake-flask method, n-octanol/buffered aqueous solution; assay type: physicochemical; settings: partitioning, n-octanol/water, pH 7.4, read-out: log D7.4 (proligand)
Protocol: Besides pKa values, lipophilicity is also an important pharmacological property of a drug, as it strongly influences the ability of the compound to pass through biological membranes. Therefore, distribution coefficients (log D7.4) were determined using the shake-flask method in an n-octanol-buffered aqueous solution at pH 7.4 (Table 1). The log D7.4 values indicate the moderate lipophilic character of the proligands. The substitution at the end nitrogen atom of the thosemicarbazide moiety and the presence of a methyl group at the Schiff base bond induce a somewhat higher lipophilicity. The presence of the phenolic moiety undoubtedly increases the log D7.4 values compared to those of FTSC (+0.73),[67]
The time-dependence of UV–vis absorption spectra was monitored for proligands HL2 at pH 7.4, 1.5 and 10.0 in 30% (v/v) DMSO/H2O, and for HL1 and HL3 at pH 7.4.
The redox reaction of the copper(II) complexes (25 µM) with GSH (1250 µM) was studied at 7.40 (50 mM HEPES buffer with 0.1 M KCl) and at 25.0 ± 0.1 °C on Hewlett Packard 8452A diode array spectrophotometer using a special, tightly closed tandem cuvette (Hellma Tandem Cell, 238-QS) as described previously.6,7 Calculation of the observed rate constants (kobs) of the redox reaction was performed by using a reported approach.6,7
Distribution coefficients (D7.4) values were determined by the traditional shake-flask method in n-octanol/buffered aqueous solution at pH 7.40 (50 mM HEPES buffer at 25.0 ± 0.2 °C as described previously in our previous work.8
2.4. Spectroelectrochemical studies
Cyclic voltammetry experiments with 0.5 mM solutions of Cu(II) complexes and corresponding ligands in 0.1 M n-Bu4NPF6 in both DMSO and methanol were performed under argon atmosphere using a three-electrode arrangement with glassy carbon 1 mm disc working electrode (from Ionode, Australia), platinum wire as counter electrode, and silver wire as pseudo -reference electrode. As a supporting e lectrolyte, 0.1 M n-Bu4NPF6 was used in DMSO (SeccoSolv max.
0.025% H2O, Merck) and 0.1 M LiClO4 (≥95.0%, Merck) in methanol. […]

[3] = system: MRC-5; assay: MTT cytotoxicity assay, MRC-5; assay type: cell-based; settings: Homo sapiens, MRC5, 72 h of exposure
Protocol: as §1, §2
All cell culture reagents were obtained from Sigma-Aldrich and plastic ware from Sarstedt […]
as §3, §4, §5, §6, §7, §8, §9, §10, §11, §12, §13, §14, §15, §16, §17, §18, §19, §20, §21, §22, §23

Row | Compound | IC50 [1] [µM] | logD [2] | IC50 [3] [µM]
1 | Cc1cc(NC(=S)NN=Cc2ccccn2)cc(C)c1O [HL^1, 2-Formylpyridine 4-(4-hydroxy-3,5-dimethylphenyl)thiosemicarbazone] | 6.32 ± 0.49 | 1.3 | > 100
2 | CC(=NNC(=S)Nc1cc(C)c(O)c(C)c1)c1ccccn1 [HL^2, 2-Acetylpyridine 4-(4-hydroxy-3,5-dimethylphenyl)thiosemicarbazone] | > 100 | 2.1 | > 100
3 | Cc1cc(NC(=S)NN=Cc2ncccc2N)cc(C)c1O [HL^3, 3-Amino-2-formylpyridine 4-(4-hydroxy-3,5-dimethylphenyl)thiosemicarbazone] | > 100 | 1.67 | > 100
